Test results taken from US11104648B2, “Pyrazole derivative” (Zhejiang Research Institute of Chemical Industry Co., Ltd., priority 2018, dated 2021).
Where two headings read alike, the source gives them in different places.

Key:
Type in all cases: in vivo
[1] = tested on: Eggs of Tetranychus Cinnabarinus; experiment: Activity assay of eggs of Tetranychus cinnabarinus (spray method, ovicidal); conditions: Tetranychus cinnabarinus; for pest or weed control at 2 µg/mL: concentration 2 mg/L
Method: According to the solubility of the test compound, the crude drug was dissolved in N N-dimethylformamide, and then prepared into a test solution of the desired concentration with 1‰ Tween 80 aqueous solution. The content of N. N-dimethylformamide in the solution should not exceed 10%.
Spray method. The broad bean leaves with petioles were cut and inserted into a bottle with water. A certain number of female mites were placed, 24h later, adult mites were removed, and spray treatment was performed in 24 h. The experiment was repeated three times, and a blank control was set, and placed to an observation room (26±2° C., humidity 70%˜80%, 16h light per day) for culture. When the blank control group was incubated, the results were investigated. The non-incubated ones were used as death for investigation.

[2] = tested on: adult Tetranychus cinnabarinus; experiment: Activity assay of adult Tetranychus cinnabarinus (whole-plant spray on bean seedlings); conditions: 48 h; for pest or weed control at 1.25 µg/mL: concentration 1.25 mg/L
Method: According to the solubility of the test compound, the crude drug was dissolved in N, N-dimethlfornamide, and then prepared into a test solution of the desired concentration with 1‰ Tween 80 aqueous solution. The content of N,N-dimethylformamide in the solution should not exceed 10%.
Two euphylla bean seedlings were taken, after inoculated with adult Tetranychus cinnabarinus and the base number was investigated, whole plants were sprayed with a hand-held sprayer. The experiment was repeated three times for each treatment, after treatment, placed in a standard observation room after treatment, to investigate the survival number of mites in 48 hand calculate the death rate.

[3] = tested on: Tetranychus cinnabarinus Nymphs; experiment: Activity assay of Tetranychus cinnabarinus nymphs (spray on broad bean leaves)
Method: According to the solubility of the test compound, the crude drug was dissolved in N, N-dimethylformamide, and then prepared into a test solution of the desired concentration with 1‰ Tween 80 aqueous solution. The content of N,N-dimethylformamide in the solution should not exceed 10%.
The broad bean leaves with petioles were cut and inserted into a small bottle with water. A certain number of brightly colored, active female adult mites were placed, 24h later, adult mites were removed, and leaves with insufficient eggs were removed. When eggs were hatched and grew into nymphs, spray treatment was performed. The experiment was repeated three times, and a blank control was set, and placed to an observation room (26±2° C., humidity 70%˜80%, 16h light per day) for culture. 48 h later, the results were investigated. The nymphs were gently touched during investigation, and if no response, they were regarded as deaths.

[4] = concentration 5 mg/L, spray, non-incubated eggs counted as dead, read-out: ovicidal activity
[5] = concentration 2.5 mg/L, read-out: adult mite-killing activity
[6] = 48 h, concentration 2.5 mg/L, read-out: nymph-killing activity
[7] = read-out: adult mite-killing activity
[8] = 48 h, read-out: nymph-killing activity
[9] = concentration 2.5 mg/L, 48 h, read-out: nymph-killing activity
[10] = spray, read-out: ovicidal activity
[11] = eggs, parallel determination, read-out: Death rate (%)
[12] = adult mites, parallel determination, read-out: Death rate (%)
[13] = 48 h, concentration 2 mg/L, read-out: nymph-killing activity
[14] = 48 h, nymphs, concentration 0.5 mg/L, parallel determination, read-out: Death rate (%)

SMILES	pest or weed control at 5 µg/mL [1, 4]	pest or weed control at 2.5 µg/mL [2, 5]	pest or weed control at 2.5 µg/mL [3, 6]	also measured
CCC(=O)OCO/C(=C(/C#N)c1ccc(C(C)(C)C)cc1)c1c(C)c(C)nn1C [Compound 152]	≥ 90%	≥ 90%	≥ 95%	
CCCC(=O)OCO/C(=C(/C#N)c1ccc(C(C)(C)C)cc1)c1c(C)c(C)nn1C [Compound 153]	≥ 90%	≥ 90%	≥ 95%	
Cc1nn(C)c(/C(OCOC(=O)C(C)C)=C(\C#N)c2ccc(C(C)(C)C)cc2)c1C [Compound 154]	≥ 90%	≥ 90%	≥ 95%	
Cc1nn(C)c(/C(OCOC(=O)C(C)(C)C)=C(\C#N)c2ccc(C(C)(C)C)cc2)c1C [Compound 155]	≥ 90%	≥ 90%	≥ 95%	
CCCCC(=O)OCO/C(=C(/C#N)c1ccc(C(C)(C)C)cc1)c1c(C)c(C)nn1C [Compound 156]	≥ 90%	≥ 90%	≥ 95%	
Cc1nn(C)c(/C(OCOC(=O)CC(C)C)=C(\C#N)c2ccc(C(C)(C)C)cc2)c1C [Compound 157]	≥ 90%	≥ 90%	≥ 95%	
COCC(=O)OCO/C(=C(/C#N)c1ccc(C(C)(C)C)cc1)c1c(C)c(C)nn1C [Compound 158]	≥ 90%	≥ 90%	≥ 95%	
Cc1nn(C)c(/C(OCOC(=O)C2CC2)=C(\C#N)c2ccc(C(C)(C)C)cc2)c1C [Compound 159]	≥ 90%	≥ 90%	≥ 95%	
CSCC(=O)OCO/C(=C(/C#N)c1ccc(C(C)(C)C)cc1)c1c(C)c(C)nn1C [Compound 160]	≥ 90%	≥ 90%	≥ 95%	
Cc1nn(C)c(/C(OCOC(=O)C2CCCCC2)=C(\C#N)c2ccc(C(C)(C)C)cc2)c1C [Compound 161]	≥ 90%	≥ 90%	≥ 95%	
Cc1nn(C)c(/C(OCOC(=O)CF)=C(\C#N)c2ccc(C(C)(C)C)cc2)c1C [Compound 162]				pest or weed control at 5 µg/mL ([1]; read-out: ovicidal activity): ≥ 90%; pest or weed control at 2.5 µg/mL [2, 7]: ≥ 90%; pest or weed control at 2.5 µg/mL [3, 8]: ≥ 95%
Cc1nn(C)c(/C(OCOC(=O)C(F)(F)F)=C(\C#N)c2ccc(C(C)(C)C)cc2)c1C [Compound 163]	≥ 90%	≥ 90%	≥ 95%	
Cc1nn(C)c(/C(OCOC(=O)c2ccccc2)=C(\C#N)c2ccc(C(C)(C)C)cc2)c1C [Compound 164]	≥ 90%	≥ 90%	≥ 95%	
Cc1nn(C)c(/C(OCOC(=O)Cc2ccccc2)=C(\C#N)c2ccc(C(C)(C)C)cc2)c1C [Compound 165]	≥ 90%	≥ 90%		pest or weed control at 2.5 µg/mL [3, 9]: ≥ 95%
CCC(C)(C)C(=O)OCO/C(=C(/C#N)c1ccc(C(C)(C)C)cc1)c1c(C)c(C)nn1C [Compound 166]	≥ 90%	≥ 90%	≥ 95%	
C=CC(=O)OCO/C(=C(/C#N)c1ccc(C(C)(C)C)cc1)c1c(C)c(C)nn1C [Compound 167]	≥ 90%	≥ 90%	≥ 95%	
CC(=O)OC(C)O/C(=C(/C#N)c1ccc(C(C)(C)C)cc1)c1c(C)c(C)nn1C (stereo not drawn) [Compound 176]	≥ 90%	≥ 90%	≥ 95%	
CCC(=O)OC(C)O/C(=C(/C#N)c1ccc(C(C)(C)C)cc1)c1c(C)c(C)nn1C (stereo not drawn) [Compound 177]	≥ 90%	≥ 90%	≥ 95%	

SMILES	pest or weed control at 5 µg/mL [1, 4]	pest or weed control at 2.5 µg/mL [2, 5]	pest or weed control at 2.5 µg/mL [3, 6]	also measured
CCCC(=O)OC(C)O/C(=C(/C#N)c1ccc(C(C)(C)C)cc1)c1c(C)c(C)nn1C (stereo not drawn) [Compound 178]	≥ 90%	≥ 90%	≥ 95%	
Cc1nn(C)c(/C(OC(C)OC(=O)C(C)C)=C(\C#N)c2ccc(C(C)(C)C)cc2)c1C (stereo not drawn) [Compound 179]	≥ 90%	≥ 90%	≥ 95%	
Cc1nn(C)c(/C(OC(C)OC(=O)C(C)(C)C)=C(\C#N)c2ccc(C(C)(C)C)cc2)c1C (stereo not drawn) [Compound 180]	≥ 90%	≥ 90%	≥ 95%	
CCCCC(=O)OC(C)O/C(=C(/C#N)c1ccc(C(C)(C)C)cc1)c1c(C)c(C)nn1C (stereo not drawn) [Compound 181]	≥ 90%	≥ 90%	≥ 95%	
Cc1nn(C)c(/C(OC(C)OC(=O)CC(C)C)=C(\C#N)c2ccc(C(C)(C)C)cc2)c1C (stereo not drawn) [Compound 182]	≥ 90%	≥ 90%	≥ 95%	
COCC(=O)OC(C)O/C(=C(/C#N)c1ccc(C(C)(C)C)cc1)c1c(C)c(C)nn1C (stereo not drawn) [Compound 183]	≥ 90%	≥ 90%	≥ 95%	
Cc1nn(C)c(/C(OC(C)OC(=O)C2CC2)=C(\C#N)c2ccc(C(C)(C)C)cc2)c1C (stereo not drawn) [Compound 184]	≥ 90%	≥ 90%	≥ 95%	
CSCC(=O)OC(C)O/C(=C(/C#N)c1ccc(C(C)(C)C)cc1)c1c(C)c(C)nn1C (stereo not drawn) [Compound 185]	≥ 90%	≥ 90%	≥ 95%	
Cc1nn(C)c(/C(OC(C)OC(=O)C2CCCCC2)=C(\C#N)c2ccc(C(C)(C)C)cc2)c1C (stereo not drawn) [Compound 186]	≥ 90%	≥ 90%	≥ 95%	
Cc1nn(C)c(/C(OC(C)OC(=O)CF)=C(\C#N)c2ccc(C(C)(C)C)cc2)c1C (stereo not drawn) [Compound 187]				pest or weed control at 5 µg/mL ([1]; read-out: ovicidal activity): ≥ 90%; pest or weed control at 2.5 µg/mL [2, 7]: ≥ 90%; pest or weed control at 2.5 µg/mL [3, 8]: ≥ 95%
Cc1nn(C)c(/C(OC(C)OC(=O)C(F)(F)F)=C(\C#N)c2ccc(C(C)(C)C)cc2)c1C (stereo not drawn) [Compound 188]	≥ 90%	≥ 90%	≥ 95%	
Cc1nn(C)c(/C(OC(C)OC(=O)c2ccccc2)=C(\C#N)c2ccc(C(C)(C)C)cc2)c1C (stereo not drawn) [Compound 189]	≥ 90%	≥ 90%	≥ 95%	
Cc1nn(C)c(/C(OC(C)OC(=O)Cc2ccccc2)=C(\C#N)c2ccc(C(C)(C)C)cc2)c1C (stereo not drawn) [Compound 190]	≥ 90%	≥ 90%		pest or weed control at 2.5 µg/mL [3, 9]: ≥ 95%
CCC(C)(C)C(=O)OC(C)O/C(=C(/C#N)c1ccc(C(C)(C)C)cc1)c1c(C)c(C)nn1C (stereo not drawn) [Compound 191]	≥ 90%	≥ 90%	≥ 95%	
C=CC(=O)OC(C)O/C(=C(/C#N)c1ccc(C(C)(C)C)cc1)c1c(C)c(C)nn1C (stereo not drawn) [Compound 192]	≥ 90%	≥ 90%	≥ 95%	
CCn1nc(C)cc1/C(OCOC(C)=O)=C(\C#N)c1ccc(C(C)(C)C)cc1 [Compound 226]	≥ 90%	≥ 90%	≥ 95%	pest or weed control at 2 µg/mL [1, 10]: ≥ 90%; pest or weed control at 2 µg/mL [1, 11]: 100%; pest or weed control at 1.25 µg/mL [2, 12]: 96%; pest or weed control at 1.25 µg/mL [2, 7]: ≥ 90%; pest or weed control at 2 µg/mL [3, 13]: ≥ 90%; pest or weed control at 0.5 µg/mL [3, 14]: 90%
CCC(=O)OCO/C(=C(/C#N)c1ccc(C(C)(C)C)cc1)c1cc(C)nn1CC [Compound 227]	≥ 90%	≥ 90%	≥ 95%	pest or weed control at 2 µg/mL [1, 10]: ≥ 90%; pest or weed control at 2 µg/mL [1, 11]: 97%; pest or weed control at 1.25 µg/mL [2, 12]: 98%; pest or weed control at 1.25 µg/mL [2, 7]: ≥ 90%; pest or weed control at 2 µg/mL [3, 13]: ≥ 90%; pest or weed control at 0.5 µg/mL [3, 14]: 94%
